Source: patent US11173160B2 (UNIVERSITY OF PITTSBURGH—OF THE COMMONWEALTH SYSTEM OF …, priority 2019, dated 2021)
“Also recorded” adds a separate entry of the source. Where two headings read alike, the source gives them in different places.

Assays:
four DIPG cell lines = assay: viability of DIPG cell lines treated in vitro with TG02; assay type: cell-based, human
Procedure: Direct cell counts were performed using the Countess II FL Automated Cell Counter (ThermoFisher Scientific). Alamar blue viability (ThermoFisher Scientific) and the 5-bromo-2′-deoxyuridine (BrdU) incorporated cell proliferation assay (Cell Signaling Technology Cat #6813) were performed using the manufacturer's standard protocol. EC50 curve analysis was performed using raw fluorescent Alamar blue values that were inputted into PRISM 7.0. Drug concentrations were log 10 transformed and values normalized to percent viability with respect to vehicle treated cells. EC50 values were interpolated from a log inhibitor vs. normalized response with variable slope using a least square fit model.

[1] = system: DIPG-007 and DIPG-IV cells; assay: Annexin-PI flow cytometry apoptosis assay; assay type: cell-based, human; conditions: 48 h, vs DMSO vehicle control
Procedure: FIGS. 5A-5K provide that pharmacological inhibition of ERK5 triggered cell death and apoptosis in DIPG cells. […] (5C-5E).
Apoptosis was quantified using the Pacific Blue Annexin V Apoptosis Detection Kit with propidium iodide (BioLegend, San Diego, Calif. Cat #640926). Analysis was performed at the Flow Cytometry Core, Rangos Research Center, UPMC Children's Hospital of Pittsburgh.

[2] = system: six adult patient-derived glioblastoma cell lines (e.g., BT228, BT286, BT145); assay: radiation therapy and TG02 in adult glioblastoma cell lines; assay type: cell-based, human; conditions: TG02 between 100 and 250 nM
Procedure: Cell viability was assessed on Day 5.

[3] = tissue and plasma distribution after a single PO dose; assay type: in vivo, female nude mice
Procedure: Three mice were sacrificed at a time 10 min, 30 min, 1, 2, 4, 8, and 24 hrs after dosing and pharmacokinetic levels were assessed.

Fyn = Fyn (Homo sapiens, UniProt P06241); conditions: Source Millipore; 10-point titration in duplicates, done once; cited from earlier work
JAK2 = JAK2 (Homo sapiens, UniProt O60674); conditions: Source Invitrogen; 10-point titration in duplicates, done once; cited from earlier work
FLT3 = FLT3 (Homo sapiens, UniProt P36888); conditions: Source Invitrogen; 10-point titration in duplicates, done once; cited from earlier work
Chain of FLT3 (P36888 27-993): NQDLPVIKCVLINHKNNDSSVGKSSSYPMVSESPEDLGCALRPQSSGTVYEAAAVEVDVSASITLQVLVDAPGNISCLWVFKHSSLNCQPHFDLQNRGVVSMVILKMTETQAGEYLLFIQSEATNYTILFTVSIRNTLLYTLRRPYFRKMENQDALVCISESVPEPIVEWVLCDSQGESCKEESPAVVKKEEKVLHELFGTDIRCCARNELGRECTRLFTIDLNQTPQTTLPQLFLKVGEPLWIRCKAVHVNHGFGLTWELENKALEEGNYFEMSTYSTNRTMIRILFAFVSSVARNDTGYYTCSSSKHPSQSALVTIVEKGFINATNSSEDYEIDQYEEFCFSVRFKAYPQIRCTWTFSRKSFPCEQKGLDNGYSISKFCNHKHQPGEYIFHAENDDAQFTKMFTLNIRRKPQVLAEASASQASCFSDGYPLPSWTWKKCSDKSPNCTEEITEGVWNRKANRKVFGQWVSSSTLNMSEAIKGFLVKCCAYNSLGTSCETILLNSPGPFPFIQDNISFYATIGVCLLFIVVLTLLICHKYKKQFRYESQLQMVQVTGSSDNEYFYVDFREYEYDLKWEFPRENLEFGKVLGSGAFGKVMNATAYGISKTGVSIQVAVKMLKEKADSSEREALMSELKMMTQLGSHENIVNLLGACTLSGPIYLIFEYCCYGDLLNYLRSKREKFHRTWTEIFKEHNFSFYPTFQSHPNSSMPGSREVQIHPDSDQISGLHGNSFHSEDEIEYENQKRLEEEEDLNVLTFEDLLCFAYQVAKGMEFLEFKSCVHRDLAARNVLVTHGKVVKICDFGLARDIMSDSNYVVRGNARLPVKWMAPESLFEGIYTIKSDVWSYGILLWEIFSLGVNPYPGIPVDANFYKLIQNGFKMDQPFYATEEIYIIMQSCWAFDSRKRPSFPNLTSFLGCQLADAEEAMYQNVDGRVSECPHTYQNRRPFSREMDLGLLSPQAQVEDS

TYRO3 = TYRO3 (Homo sapiens, UniProt Q06418); conditions: Source Invitrogen; 10-point titration in duplicates, done once; cited from earlier work
Chain of TYRO3 (Q06418 41-890): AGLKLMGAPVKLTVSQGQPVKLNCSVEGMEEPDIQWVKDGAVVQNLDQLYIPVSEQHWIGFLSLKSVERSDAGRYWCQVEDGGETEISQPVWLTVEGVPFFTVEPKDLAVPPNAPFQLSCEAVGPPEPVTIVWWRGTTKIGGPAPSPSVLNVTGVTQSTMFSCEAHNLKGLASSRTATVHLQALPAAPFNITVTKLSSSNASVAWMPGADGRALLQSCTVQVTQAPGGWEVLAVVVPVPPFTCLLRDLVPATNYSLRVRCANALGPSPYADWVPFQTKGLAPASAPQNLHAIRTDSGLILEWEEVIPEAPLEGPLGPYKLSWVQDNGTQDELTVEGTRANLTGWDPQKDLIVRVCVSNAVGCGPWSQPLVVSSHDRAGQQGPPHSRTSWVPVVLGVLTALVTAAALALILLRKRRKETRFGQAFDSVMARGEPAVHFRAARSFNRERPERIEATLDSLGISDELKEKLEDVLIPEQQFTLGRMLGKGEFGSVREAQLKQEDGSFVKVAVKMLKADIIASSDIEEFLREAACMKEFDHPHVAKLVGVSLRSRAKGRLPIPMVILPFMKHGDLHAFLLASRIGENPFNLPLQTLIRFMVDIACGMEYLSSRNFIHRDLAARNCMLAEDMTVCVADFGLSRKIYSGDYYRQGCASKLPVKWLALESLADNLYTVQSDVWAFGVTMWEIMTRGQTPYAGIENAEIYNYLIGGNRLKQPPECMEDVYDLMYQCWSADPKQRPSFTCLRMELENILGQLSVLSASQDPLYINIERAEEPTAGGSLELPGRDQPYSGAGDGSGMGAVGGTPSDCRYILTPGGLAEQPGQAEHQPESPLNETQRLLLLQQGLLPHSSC

Aurora A = Aurora A (Homo sapiens, UniProt O14965); conditions: cited from earlier work
Chain of Aurora A (O14965 whole entry): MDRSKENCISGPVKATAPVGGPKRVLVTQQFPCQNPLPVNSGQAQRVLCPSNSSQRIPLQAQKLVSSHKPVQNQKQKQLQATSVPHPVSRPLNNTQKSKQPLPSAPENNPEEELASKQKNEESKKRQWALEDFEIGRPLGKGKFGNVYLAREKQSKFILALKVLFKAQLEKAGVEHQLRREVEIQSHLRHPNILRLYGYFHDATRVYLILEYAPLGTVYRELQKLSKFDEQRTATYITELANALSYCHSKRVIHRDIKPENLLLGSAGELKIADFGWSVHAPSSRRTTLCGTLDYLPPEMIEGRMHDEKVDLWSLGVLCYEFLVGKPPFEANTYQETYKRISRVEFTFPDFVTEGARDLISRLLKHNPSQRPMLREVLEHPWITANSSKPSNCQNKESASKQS

CDK4 = CDK4 (Homo sapiens, UniProt P11802); conditions: cited from earlier work
[4] = cited from earlier work
[5] = cited from earlier work; remark: listed apart in the source
EGFR = EGFR (Homo sapiens, UniProt P00533); conditions: cited from earlier work
IKK-β = IKK-β (Homo sapiens, UniProt O14920); conditions: cited from earlier work
Chain of IKK-β (O14920 whole entry): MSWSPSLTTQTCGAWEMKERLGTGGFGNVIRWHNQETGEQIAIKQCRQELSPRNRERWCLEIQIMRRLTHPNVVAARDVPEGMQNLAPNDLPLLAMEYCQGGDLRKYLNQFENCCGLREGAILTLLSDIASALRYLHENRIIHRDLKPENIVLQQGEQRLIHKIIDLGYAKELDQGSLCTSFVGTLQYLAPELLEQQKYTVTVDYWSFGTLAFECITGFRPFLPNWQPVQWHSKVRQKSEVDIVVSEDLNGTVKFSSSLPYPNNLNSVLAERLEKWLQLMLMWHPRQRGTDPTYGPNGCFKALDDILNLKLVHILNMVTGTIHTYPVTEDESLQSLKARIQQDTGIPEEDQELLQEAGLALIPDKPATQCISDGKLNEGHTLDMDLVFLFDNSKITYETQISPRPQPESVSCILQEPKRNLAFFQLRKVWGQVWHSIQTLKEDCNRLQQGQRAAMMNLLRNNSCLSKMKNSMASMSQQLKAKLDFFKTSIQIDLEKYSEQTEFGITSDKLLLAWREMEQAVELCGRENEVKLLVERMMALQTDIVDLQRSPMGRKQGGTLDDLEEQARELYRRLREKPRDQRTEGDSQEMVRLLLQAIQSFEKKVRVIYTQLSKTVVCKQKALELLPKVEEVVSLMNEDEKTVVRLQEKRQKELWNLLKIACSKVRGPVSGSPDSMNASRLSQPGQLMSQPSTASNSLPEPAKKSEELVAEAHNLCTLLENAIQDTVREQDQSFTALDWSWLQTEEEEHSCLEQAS

JNK1 = JNK1 (Homo sapiens, UniProt P45983); conditions: cited from earlier work
Nek2 = Nek2 (Homo sapiens, UniProt P51955); conditions: cited from earlier work
Chain of Nek2 (P51955 whole entry): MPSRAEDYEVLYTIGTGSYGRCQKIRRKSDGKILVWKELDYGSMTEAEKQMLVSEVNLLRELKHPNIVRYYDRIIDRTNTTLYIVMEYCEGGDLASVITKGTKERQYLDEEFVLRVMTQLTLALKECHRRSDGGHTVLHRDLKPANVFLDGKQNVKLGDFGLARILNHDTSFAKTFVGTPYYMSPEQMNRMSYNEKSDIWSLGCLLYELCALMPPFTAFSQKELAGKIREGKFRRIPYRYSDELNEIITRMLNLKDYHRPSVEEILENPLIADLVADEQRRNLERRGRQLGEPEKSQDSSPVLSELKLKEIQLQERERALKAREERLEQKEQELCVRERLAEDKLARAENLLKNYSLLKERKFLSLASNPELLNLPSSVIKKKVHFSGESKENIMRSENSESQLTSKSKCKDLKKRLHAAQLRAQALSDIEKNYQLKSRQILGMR

p38α = p38α (Homo sapiens, UniProt Q16539); conditions: cited from earlier work
Chain of p38α (Q16539 whole entry): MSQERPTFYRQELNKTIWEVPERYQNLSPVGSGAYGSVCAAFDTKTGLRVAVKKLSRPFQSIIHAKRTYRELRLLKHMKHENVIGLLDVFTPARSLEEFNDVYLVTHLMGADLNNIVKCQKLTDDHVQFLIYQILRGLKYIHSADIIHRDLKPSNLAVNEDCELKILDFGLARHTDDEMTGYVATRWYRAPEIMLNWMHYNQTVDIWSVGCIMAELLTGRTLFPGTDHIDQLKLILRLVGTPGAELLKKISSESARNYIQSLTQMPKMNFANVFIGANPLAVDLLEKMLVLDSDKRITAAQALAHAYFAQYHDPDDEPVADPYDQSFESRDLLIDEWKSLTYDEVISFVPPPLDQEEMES

PKBα = PKBα (Homo sapiens, UniProt P31749); conditions: cited from earlier work
Chain of PKBα (P31749 whole entry, species assumed): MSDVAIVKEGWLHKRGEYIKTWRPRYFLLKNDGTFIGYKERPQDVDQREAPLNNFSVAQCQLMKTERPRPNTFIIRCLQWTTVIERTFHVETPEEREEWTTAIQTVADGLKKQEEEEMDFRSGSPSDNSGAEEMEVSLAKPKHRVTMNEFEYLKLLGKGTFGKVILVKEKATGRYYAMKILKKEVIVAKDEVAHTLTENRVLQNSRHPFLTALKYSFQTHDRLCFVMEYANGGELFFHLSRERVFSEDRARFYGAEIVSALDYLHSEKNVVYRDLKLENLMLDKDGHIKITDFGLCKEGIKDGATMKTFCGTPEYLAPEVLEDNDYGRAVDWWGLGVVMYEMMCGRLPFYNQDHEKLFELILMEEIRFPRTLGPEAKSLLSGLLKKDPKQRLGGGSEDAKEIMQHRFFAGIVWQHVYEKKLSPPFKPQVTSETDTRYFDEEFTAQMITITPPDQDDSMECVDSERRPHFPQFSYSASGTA

PKCε = PKCε (Homo sapiens, UniProt Q02156); conditions: cited from earlier work
Chain of PKCε (Q02156 whole entry): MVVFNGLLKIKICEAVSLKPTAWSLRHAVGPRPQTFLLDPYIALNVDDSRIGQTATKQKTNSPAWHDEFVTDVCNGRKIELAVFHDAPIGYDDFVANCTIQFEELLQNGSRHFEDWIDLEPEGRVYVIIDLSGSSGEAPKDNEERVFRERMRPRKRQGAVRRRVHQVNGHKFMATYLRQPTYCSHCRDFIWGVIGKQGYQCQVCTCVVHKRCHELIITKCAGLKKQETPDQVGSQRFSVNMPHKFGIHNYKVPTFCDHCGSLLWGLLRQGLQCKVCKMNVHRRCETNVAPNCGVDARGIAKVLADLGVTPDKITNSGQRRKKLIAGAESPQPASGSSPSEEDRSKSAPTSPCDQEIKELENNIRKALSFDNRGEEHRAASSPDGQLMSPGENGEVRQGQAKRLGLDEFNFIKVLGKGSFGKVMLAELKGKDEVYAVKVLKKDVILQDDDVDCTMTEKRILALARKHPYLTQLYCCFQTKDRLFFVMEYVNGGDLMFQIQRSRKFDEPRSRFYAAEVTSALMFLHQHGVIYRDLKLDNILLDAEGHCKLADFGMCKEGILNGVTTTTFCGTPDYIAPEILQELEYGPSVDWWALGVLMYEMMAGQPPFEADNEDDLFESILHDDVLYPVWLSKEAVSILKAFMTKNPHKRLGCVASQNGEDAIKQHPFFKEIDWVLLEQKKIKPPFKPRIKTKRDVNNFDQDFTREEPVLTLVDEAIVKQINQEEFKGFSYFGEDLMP

Src = Src (Homo sapiens, UniProt P12931); conditions: cited from earlier work
TAK1 = TAK1 (Homo sapiens, UniProt O43318); conditions: cited from earlier work
CYP3A4 = CYP3A4 (Homo sapiens, UniProt P08684); conditions: cited from earlier work
[6] = cited from earlier work; remark: listed apart in the source
[7] = human pharmacokinetics of TG02 as a single agent

Structure (SMILES): CN1C/C=C/CCOc2cccc(c2)-c2ccnc(n2)Nc2cccc(c2)C1 [TG02, (16E)-14-methyl-20-oxa-5,7,14,27-tetraazatetracyclo[19.3.1.12,6.18,12]heptacosa-1(25),2(27),3,5,8(26),9,11,16,21,23-decaene]
- IC50 (four DIPG cell lines; Homo sapiens, read-out: IC50 of TG02 in vitro against DIPG cell lines, approximate): ~100 nM
- EC50 (four DIPG cell lines; Homo sapiens, median of four DIPG cell lines in vitro, read-out: median EC50 (decreased viability)): 75 nM
- EC50 (four DIPG cell lines; Homo sapiens, range over four DIPG cell lines in vitro, read-out: EC50 range (decreased viability)): 60 to 93 nM
- apoptosis (four DIPG cell lines; four DIPG cell lines in vitro): increased apoptosis
- apoptosis (Annexin-PI) [1]: significantly higher rates of apoptosis; also recorded: increased populations in early apoptosis
- viable cells (Annexin negative, PI negative) [1]: decreased viable cells
- effect of combining radiation therapy (RT) and TG02 [2]: mostly a synergistic effect
- blood-brain barrier penetration ([3]; mouse, in vivo): blood-brain barrier penetrant
- Cmax in the brain compared to plasma ([3]; single PO dose of 75 mg/kg): at least twice as high
- exposure (AUC0-last) in the brain compared to plasma ([3]; single PO dose of 75 mg/kg): at least twice as high
- IC50 (Fyn): 15 nM
- IC50 (JAK2): 19 nM
- IC50 (FLT3): 19 nM
- IC50 (TYRO3): 36 nM
- inhibition at 100 nm (Aurora A): less than 50%
- inhibition at 100 nm (CDK4): less than 50%
- inhibition at 100 nm [4]: less than 50%
- inhibition at 100 nm [5]: less than 50%
- inhibition at 100 nm (EGFR): less than 50%
- inhibition at 100 nm (IKK-β): less than 50%
- inhibition at 100 nm (JNK1): less than 50%
- inhibition at 100 nm (Nek2): less than 50%
- inhibition at 100 nm (p38α): less than 50%
- inhibition at 100 nm (PKBα): less than 50%
- inhibition at 100 nm (PKCε): less than 50%
- inhibition at 100 nm (Src): less than 50%
- inhibition at 100 nm (TAK1): less than 50%
- substrate of CYP3A4 (CYP3A4): substrate
- dose-limiting toxicities (DLTs), DD regimen ([6]; human, in vivo): grade 3 diarrhea (n=1) at 200 mg of TG02, and grade 4 neutropenia and grade 3 increase in ALT (n=1) at 250 mg of TG02
- dose-limiting toxicities (DLTs), MN regimen ([6]; human, in vivo): grade 4 lymphopenia (n=2) and increase in ALT (n=1) at 250 mg of TG02
- MTD, metronomic (MN) temozolomide regimen ([6]; temozolomide 50 mg/m^2): 200 mg
- MTD, dose-dense (DD) temozolomide regimen ([6]; temozolomide 125 m/m^2 per day 7 days on/7 days off): 250 mg
- peak concentration in plasma ([7]; adults, single dose of 200 mg, equivalent): 11,000 nM
- Cmax in adults over in vitro IC50 in patient-derived DIPG cell lines ([7]; in vivo): ~2 logs
